Values joined by “and” are separate entries in the source; they are usually repeats but may differ in a detail not shown here. Equal values may be shown once.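 Grown in 96-well plates, cells were treated for 48 hours with each compound at five concentrations. Insufficient inhibition: endpoint recorded as highest concentration tested. TGI: concentration producing complete growth inhibition.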 A value given as a limit tells only on which side of the number the result lay.

The first experiment relates to HT29 colon. Briefly: inhibition of tumour cell growth, NCI panel, 48 h.
`Cc1nc2ccccc2n1COC(Cn1ccnc1)c1ccc(Cl)cc1Cl` (stereo not drawn) yielded a TGI above 100 µM.

With `Cn1c2ccccc2c2c(-c3ccccc3)cc3c(c21)C(=O)C=CC3=O`, the TGI was above 9 µM.

`Nc1ncnn2c(C3OC(CO)C(O)C3O)ccc12` (stereo not drawn) gave a TGI of 1.45 µM.

Consider `COC(=O)[C@@H]1CN(C(C)=O)C(=O)N1`, for which the TGI was above 100 µM.

`COc1ccc(-c2c(C#N)c(N)n(C3OCC(OC(C)=O)C(OC(C)=O)C3OC(C)=O)c(=S)c2C#N)cc1` (stereo not drawn): the TGI is above 100 µM.

The test system of a further experiment is RPMI-8226 leukemia. Briefly: inhibition of tumour cell growth, NCI panel, 48 h.
`CC(C)=CCC/C(C)=C/CC/C(C)=C/CC/C(C)=C/C=C/C=C(\C)CC/C=C(\C)CC/C=C(\C)CCC=C(C)C` displayed a TGI above 100 µM.

The molecule `CCOC(=O)P(=O)(O)c1ccc(N(C)Cc2ccccc2)cc1` had a TGI above 100 µM.

Molecule `C=C(C)C1=CCC[C@]2(C1)N=C(OC)[C@@H](C(C)C)N=C2OC` registered a TGI of 47.9 µM.

Take `Cc1cc2ccccc2n2c1nc1ccccc12`: the TGI is above 100 µM.

With `[N-]=[N+]=Nc1ccccc1C(=O)N1C(=O)c2ccccc2C(=O)N(C(=O)c2ccccc2N=[N+]=[N-])c2ccccc21`, the TGI is above 100 µM.

The molecule `CCCCCCCCCCCCCCCCCCNC(=O)C(N)Cc1ccc(OCc2ccccc2)cn1` (stereo not drawn) came in with a TGI of 80.6 µM.

The molecule `Cc1ccc2c(c1)[nH]c(=S)n2/C=C1\C(=O)Oc2ccccc2C1=O` registered a TGI above 100 µM.

`CC(C)Cn1cnc2c(NCC(C)O)nc3ccccc3c21` (stereo not drawn) displayed a TGI above 100 µM.

As to `OC1(c2cccs2)c2cccc(Cl)c2C(O)(c2cccs2)c2c(Cl)cccc21` (stereo not drawn), the TGI is above 100 µM.

With `C=CCOc1cccc(C2(O)c3ccccc3C3=NCCCN32)c1` (stereo not drawn), the TGI came to 40.3 µM.

In turn, `O=C1CCCCC/C1=C\c1cccc(Cl)c1` returned a TGI above 100 µM.

Regarding `CCc1c2c([nH]c(=S)c1C#N)CCC2`, the TGI is above 100 µM.

`C=CCN1C(=O)/C(=C/c2ccc(OC)cc2)N=C1SC/C=C/C` registered a TGI above 100 µM.

With `Cc1nc2ccccc2n1COC(Cn1ccnc1)c1ccc(Cl)cc1Cl` (stereo not drawn), the TGI is above 100 µM.

The molecule `Cn1c2ccccc2c2c(-c3ccccc3)cc3c(c21)C(=O)C=CC3=O` returned a TGI of 4.8 µM.

For the molecule `Nc1ncnn2c(C3OC(CO)C(O)C3O)ccc12` (stereo not drawn), the TGI is 0.467 µM.

`COC(=O)[C@@H]1CN(C(C)=O)C(=O)N1` registered a TGI above 100 µM.

In the case of `COc1ccc(-c2c(C#N)c(N)n(C3OCC(OC(C)=O)C(OC(C)=O)C3OC(C)=O)c(=S)c2C#N)cc1` (stereo not drawn), the TGI was 75.1 µM and 97.5 µM.

Another experiment relates to OVCAR-5 ovarian. Briefly: inhibition of tumour cell growth, NCI panel, 48 h.
Turning to `CC(C)=CCC/C(C)=C/CC/C(C)=C/CC/C(C)=C/C=C/C=C(\C)CC/C=C(\C)CC/C=C(\C)CCC=C(C)C`, the TGI was above 100 µM.

`CCOC(=O)P(=O)(O)c1ccc(N(C)Cc2ccccc2)cc1` had a TGI above 100 µM.

`C=C(C)C1=CCC[C@]2(C1)N=C(OC)[C@@H](C(C)C)N=C2OC` displayed a TGI above 100 µM.

`Cc1cc2ccccc2n2c1nc1ccccc12`: the TGI is above 100 µM.

The molecule `[N-]=[N+]=Nc1ccccc1C(=O)N1C(=O)c2ccccc2C(=O)N(C(=O)c2ccccc2N=[N+]=[N-])c2ccccc21` came in with a TGI above 100 µM.

In turn, `CCCCCCCCCCCCCCCCCCNC(=O)C(N)Cc1ccc(OCc2ccccc2)cn1` (stereo not drawn) displayed a TGI of 43.1 µM.

In turn, `Cc1ccc2c(c1)[nH]c(=S)n2/C=C1\C(=O)Oc2ccccc2C1=O` had a TGI above 100 µM.

In turn, `CC(C)Cn1cnc2c(NCC(C)O)nc3ccccc3c21` (stereo not drawn) gave a TGI above 100 µM.

`OC1(c2cccs2)c2cccc(Cl)c2C(O)(c2cccs2)c2c(Cl)cccc21` (stereo not drawn): the TGI is above 100 µM.

On to `C=CCOc1cccc(C2(O)c3ccccc3C3=NCCCN32)c1` (stereo not drawn), for which the TGI is above 77.9 µM.

Molecule `O=C1CCCCC/C1=C\c1cccc(Cl)c1` gave a TGI above 100 µM.

Turning to `CCc1c2c([nH]c(=S)c1C#N)CCC2`, the TGI is above 100 µM.

`C=CCN1C(=O)/C(=C/c2ccc(OC)cc2)N=C1SC/C=C/C` gave a TGI above 100 µM.

With `Cc1nc2ccccc2n1COC(Cn1ccnc1)c1ccc(Cl)cc1Cl` (stereo not drawn), the TGI is above 100 µM.

Turning to `Cn1c2ccccc2c2c(-c3ccccc3)cc3c(c21)C(=O)C=CC3=O`, the TGI is above 10 µM.

Take `Nc1ncnn2c(C3OC(CO)C(O)C3O)ccc12` (stereo not drawn): the TGI came to 4.54 µM.

Regarding `COC(=O)[C@@H]1CN(C(C)=O)C(=O)N1`, the TGI was above 100 µM.

In turn, `COc1ccc(-c2c(C#N)c(N)n(C3OCC(OC(C)=O)C(OC(C)=O)C3OC(C)=O)c(=S)c2C#N)cc1` (stereo not drawn) returned a TGI above 100 µM.

For a further experiment, the system named is U251 CNS. Briefly: inhibition of tumour cell growth, NCI panel, 48 h.
`CC(C)=CCC/C(C)=C/CC/C(C)=C/CC/C(C)=C/C=C/C=C(\C)CC/C=C(\C)CC/C=C(\C)CCC=C(C)C` had a TGI above 100 µM.

Take `CCOC(=O)P(=O)(O)c1ccc(N(C)Cc2ccccc2)cc1`: the TGI is above 100 µM.

Take `C=C(C)C1=CCC[C@]2(C1)N=C(OC)[C@@H](C(C)C)N=C2OC`: the TGI was above 100 µM.

Regarding `Cc1cc2ccccc2n2c1nc1ccccc12`, the TGI was above 100 µM.

As to `[N-]=[N+]=Nc1ccccc1C(=O)N1C(=O)c2ccccc2C(=O)N(C(=O)c2ccccc2N=[N+]=[N-])c2ccccc21`, the TGI was above 100 µM.

Take `CCCCCCCCCCCCCCCCCCNC(=O)C(N)Cc1ccc(OCc2ccccc2)cn1` (stereo not drawn): the TGI amounted to 35.4 µM.

On to `Cc1ccc2c(c1)[nH]c(=S)n2/C=C1\C(=O)Oc2ccccc2C1=O`, for which the TGI was above 100 µM.

In the case of `CC(C)Cn1cnc2c(NCC(C)O)nc3ccccc3c21` (stereo not drawn), the TGI was above 100 µM.

`OC1(c2cccs2)c2cccc(Cl)c2C(O)(c2cccs2)c2c(Cl)cccc21` (stereo not drawn) showed a TGI above 100 µM.

As for `C=CCOc1cccc(C2(O)c3ccccc3C3=NCCCN32)c1` (stereo not drawn), the TGI was found to be 32.5 µM.

Turning to `O=C1CCCCC/C1=C\c1cccc(Cl)c1`, the TGI was above 100 µM.

In turn, `CCc1c2c([nH]c(=S)c1C#N)CCC2` had a TGI above 100 µM.

With `C=CCN1C(=O)/C(=C/c2ccc(OC)cc2)N=C1SC/C=C/C`, the TGI is above 100 µM.

In turn, `Cc1nc2ccccc2n1COC(Cn1ccnc1)c1ccc(Cl)cc1Cl` (stereo not drawn) registered a TGI above 100 µM.

As for `Cn1c2ccccc2c2c(-c3ccccc3)cc3c(c21)C(=O)C=CC3=O`, the TGI is above 9.67 µM.

Consider `Nc1ncnn2c(C3OC(CO)C(O)C3O)ccc12` (stereo not drawn), for which the TGI was found to be 4.14 µM.

As to `COC(=O)[C@@H]1CN(C(C)=O)C(=O)N1`, the TGI was above 100 µM.

Consider `COc1ccc(-c2c(C#N)c(N)n(C3OCC(OC(C)=O)C(OC(C)=O)C3OC(C)=O)c(=S)c2C#N)cc1` (stereo not drawn), for which the TGI was above 100 µM.

Another experiment concerns M14 melanoma. Briefly: inhibition of tumour cell growth, NCI panel, 48 h.
As to `CC(C)=CCC/C(C)=C/CC/C(C)=C/CC/C(C)=C/C=C/C=C(\C)CC/C=C(\C)CC/C=C(\C)CCC=C(C)C`, the TGI was above 100 µM.

`CCOC(=O)P(=O)(O)c1ccc(N(C)Cc2ccccc2)cc1` had a TGI above 100 µM.

Molecule `C=C(C)C1=CCC[C@]2(C1)N=C(OC)[C@@H](C(C)C)N=C2OC` registered a TGI above 100 µM.

`Cc1cc2ccccc2n2c1nc1ccccc12` gave a TGI above 100 µM.

`[N-]=[N+]=Nc1ccccc1C(=O)N1C(=O)c2ccccc2C(=O)N(C(=O)c2ccccc2N=[N+]=[N-])c2ccccc21` yielded a TGI above 100 µM.

Molecule `CCCCCCCCCCCCCCCCCCNC(=O)C(N)Cc1ccc(OCc2ccccc2)cn1` (stereo not drawn) displayed a TGI of 33.3 µM.

For `Cc1ccc2c(c1)[nH]c(=S)n2/C=C1\C(=O)Oc2ccccc2C1=O`, the TGI is above 100 µM.

`CC(C)Cn1cnc2c(NCC(C)O)nc3ccccc3c21` (stereo not drawn) yielded a TGI above 100 µM.

As to `OC1(c2cccs2)c2cccc(Cl)c2C(O)(c2cccs2)c2c(Cl)cccc21` (stereo not drawn), the TGI is above 100 µM.

For the origin of these results see PubChem BioAssay (NCI).
